Results from patent US20190382396A1, “SALTS OF BICYCLO[1.1.1]PENTANE INHIBITORS OF DUAL LEUCINE ZIPPER (DLK) KINASE FOR THE TREATMENT OF DISEASE” (Board of Regents, The University of Texas System, priority 2018, published 2019).
Where two headings read alike, the source gives them in different places.

Experiments:
Format in all cases: physicochemical
[1] = Dynamic vapor sorption (DVS), hygroscopicity
Procedure: Dynamic vapor sorption (“DVS”) was performed at 25° C., using approx 10-15 mg of sample and N2 gas at a flow rate of 200 mL/min, dm/dt=0.01% min, minimum dm/dt stability duration of 10 min, max equilibration time of 180 min, drying at 0% RH for 120 min, scanning from 0% RH to 90% RH to 0% RH with a step size of 10% RH.
Total cycling time varied, but in all cases was about 200-250 min.

[2] = Solubility in physiologically relevant solutions (SGF, FaSSIF, FeSSIF); details: 25±0.5° C.; for solubility at 24 h: 25 °C, thermodynamic from solid
Procedure: Solubility of the free base 1 and the selected salts 8, 9, 10, and 11 in physiologically relevant solutions were examined. For each material, aliquots were added to 2 ml vials containing 500 uL of either SGF, FaSSIF, or FeSSIF, which were then sealed. The mixtures were kept shaking by thermomixer at 700 rpm, 25±0.5° C. for 24 h to facilitate the dissolution and then centrifuged by 96-well plates at 3000 rpm for 2 min. The filter liquors were diluted with diluents (ACN/water, 50/50) and analyzed by HPLC.

[3] = Stability (50° C., 40° C./75% RH, light; 1 week); details: for XRPD change? / purity: bulk, 1 week
Procedure: The stability of the free base 1 and the selected salts 8, 9, 10, and 11 was evaluated. For each material, aliquots were set up at each of conditions (50° C., 40° C./75% RH, light) at given time points (initial and 1 week). PXRD diffractograms of the hydrogen fumarate salt 11 is shown in FIG. 17, with trace (a) showing the initial salt, trace (b) showing the salt after light treatment, trace (c) showing the salt after storage at 40° C. and 75% relative humidity for 1 week, and (d) showing the salt after storage at 50° C. for 1 week.

[4] = Polymorph formation of hydrogen fumarate salt 11 (slurry, anti-solvent, heat-cool); set-up: key to Observation 50° C. / observation rt / observation 60° C.: “s” = slurry; “c” = clear
Procedure: Formation of polymorphs of the hydrogen fumarate salt 11 was examined. About 15 mg of hydrogen fumarate salt 11 was combined with 0.5 mL of a selected organic solvent in a vial. The mixture was stirred at 700 RPM at 50° C. for 2 days. If a solid precipitate was present, the solid precipitate was then removed by centrifugation (14,000 RPM, 5 min) and dried under vacuum at 30° C. (Method I). If a solid precipitate was not present, the solvent was removed by evaporation under vacuum at 30° C. (Method II). In either case, the resulting material was evaluated by XRPD.
Polymorph formation was examined with a slurry method using various solvents. About 500 mg of hydrogen fumarate salt 11 was combined with 50 mL of DMSO and 1 mL DMF to afford a saturated solution. Anti-solvent (no more than 5x solution volume) chosen from EtOH, iPrOH, acetone, water, and EtOAc was added. In no case was a precipitate formed.
Polymorph formation was further examined with a heat-cool method using various solvents. About 100 mg of hydrogen fumarate salt 11 was combined with 1 mL of a selected solvent. The mixture was stirred at 700 RPM for 4 hrs at 60° C., then allowed to cool to room temperature. The cycle was repeated twice. If a solid precipitate was present, the solid precipitate was then removed by centrifugation and dried under vacuum at 30° C. (Method I). If a solid precipitate was not present, the solvent was removed by evaporation (Method II). In either case, the resulting material was evaluated by XRPD.

[5] = Particle size distribution of hydrogen fumarate salt 11; details: for D-value: in µm (unit assumed)
Procedure: VMD=[…]; STD=[…]; Duration=0.04; Copt=2.90.

[6] = Thermogravimetric analysis / DSC weight loss; details: <120° C.
Procedure: Differential scanning calorimetry (“DSC”) was performed with a TA Q2000 instrument, using approx 1 mg of sample in a crimped Al pan, heating from room temperature to 300° C. at a rate of 10° C./min.
Thermogravimetric analysis (“TGA”) was performed with a TA Q5000 instrument, using approx 2-5 mg of sample in an open Pt pan, heating from room temperature to 300° C. at a rate of 10° C./min.

CC(C)c1nc(-c2cnc(N)c(OC(F)(F)F)c2)cn1C12CC(N3CCOCC3)(C1)C2.O=C(O)/C=C/C(=O)O [Example 11, 5-(2-isopropyl-1-(3-morpholinobicyclo[1.1.1]pentan-1-yl)-1H-imidazol-4-yl)-3-(trifluoromethoxy)pyridin-2-amine hydrogen fumarate]
Maximum sorption ([1]; DVS, 25° C.): 0.47% | Hygroscopicity (0-40% RH) ([1]; DVS, 25° C., 0-40% RH): 0.1% | Hygroscopicity (0-90% RH) ([1]; DVS, 25° C., 0-90% RH): 0.47% | Change in mass (%) Desorption ([1]; DVS, Target % P/P0 0.0): −0.0114% | Change in mass (%) Sorption ([1]; DVS, Target % P/P0 0.0): 0.0000% | Change in mass (%) Desorption ([1]; DVS, Target % P/P0 10.0): 0.0209% | Change in mass (%) Hysteresis ([1]; DVS, Target % P/P0 10.0): 0.0010% | Change in mass (%) Sorption ([1]; DVS, Target % P/P0 10.0): 0.0200% | Change in mass (%) Desorption ([1]; DVS, Target % P/P0 20.0): 0.0448% | Change in mass (%) Hysteresis ([1]; DVS, Target % P/P0 20.0): 0.0067% | Change in mass (%) Sorption ([1]; DVS, Target % P/P0 20.0): 0.0381% | Change in mass (%) Desorption ([1]; DVS, Target % P/P0 30.0): 0.0866% | Change in mass (%) Hysteresis ([1]; DVS, Target % P/P0 30.0): 0.0286% | Change in mass (%) Sorption ([1]; DVS, Target % P/P0 30.0): 0.0581% | Change in mass (%) Desorption ([1]; DVS, Target % P/P0 40.0): 0.1238% | Change in mass (%) Hysteresis ([1]; DVS, Target % P/P0 40.0): 0.0267% | Change in mass (%) Sorption ([1]; DVS, Target % P/P0 40.0): 0.0971% | Change in mass (%) Desorption ([1]; DVS, Target % P/P0 50.0): 0.1695% | Change in mass (%) Hysteresis ([1]; DVS, Target % P/P0 50.0): 0.0352% | Change in mass (%) Sorption ([1]; DVS, Target % P/P0 50.0): 0.1343% | Change in mass (%) Desorption ([1]; DVS, Target % P/P0 60.0): 0.2285% | Change in mass (%) Hysteresis ([1]; DVS, Target % P/P0 60.0): 0.0457% | Change in mass (%) Sorption ([1]; DVS, Target % P/P0 60.0): 0.1828% | Change in mass (%) Desorption ([1]; DVS, Target % P/P0 70.0): 0.2885% | Change in mass (%) Hysteresis ([1]; DVS, Target % P/P0 70.0): 0.0438% | Change in mass (%) Sorption ([1]; DVS, Target % P/P0 70.0): 0.2447% | Change in mass (%) Hysteresis ([1]; DVS, Target % P/P0 80.0): 0.0390% | Change in mass (%) Sorption ([1]; DVS, Target % P/P0 80.0): 0.3295% | Change in mass (%) Desorption ([1]; DVS, Target % P/P0 90.0): 0.4742% | Change in mass (%) Sorption ([1]; DVS, Target % P/P0 90.0): 0.4742% | Hygroscopicity; form change ([1]; form change after DVS): no change | solubility at 24 h ([2]; simulated gastric fluid, SGF, read-out: Solubility SGF Conc): 5810 µg/mL | solubility at 24 h ([2]; FaSSIF, read-out: Solubility FaSSIF Conc): 459 µg/mL | solubility at 24 h ([2]; FeSSIF, read-out: Solubility FeSSIF Conc): 646 µg/mL | FaSSIF pH after 24 h ([2]; FaSSIF): 4.85 | FeSSIF pH after 24 h ([2]; FeSSIF): 4.84 | SGF pH after 24 h ([2]; SGF): 3.01 | XRPD change? ([3]; 40° C., 75% RH): no | purity ([3]; 40° C., 75% RH): 99.88% | XRPD change? ([3]; 50° C.): no | purity ([3]; 50° C.): 99.89% | initial purity ([3]; initial (before storage)): 99.85% | XRPD change? ([3]; light): no | purity ([3]; light): 99.89% | observation 60° C. ([4]; heat-cool method, Acetone): s | observation rt ([4]; heat-cool method, Acetone): s | observation 60° C. ([4]; heat-cool method, EtOAc): s | observation rt ([4]; heat-cool method, EtOAc): s | observation 60° C. ([4]; heat-cool method, EtOH): s | observation rt ([4]; heat-cool method, EtOH): s | XRPD results ([4]; heat-cool method, THF): amorphous | observation 60° C. ([4]; heat-cool method, THF): c | observation rt ([4]; heat-cool method, THF): c | observation 60° C. ([4]; heat-cool method, iPrOH): s | observation rt ([4]; heat-cool method, iPrOH): s | Observation 50° C. ([4]; slurry 50° C., 2 days, 1/1 (v/v) EtOH/H2O): c | Observation 50° C. ([4]; slurry 50° C., 2 days, 1/1 (v/v) acetone/H2O): c | Observation 50° C. ([4]; slurry 50° C., 2 days, Acetone): c | Observation 50° C. ([4]; slurry 50° C., 2 days, CH2Cl2): s | Observation 50° C. ([4]; slurry 50° C., 2 days, CH3CN): s | Observation 50° C. ([4]; slurry 50° C., 2 days, Dioxane): c | Observation 50° C. ([4]; slurry 50° C., 2 days, EtOAc): s | Observation 50° C. ([4]; slurry 50° C., 2 days, EtOH): c | Observation 50° C. ([4]; slurry 50° C., 2 days, H2O): s | Observation 50° C. ([4]; slurry 50° C., 2 days, Heptane): s | Observation 50° C. ([4]; slurry 50° C., 2 days, MeOH): c | XRPD pattern ([4]; slurry 50° C., 2 days, MeOH): almost | Observation 50° C. ([4]; slurry 50° C., 2 days, Toluene): s | Observation 50° C. ([4]; slurry 50° C., 2 days, iPrOH): c | PSD D90 ([5]; 8500 mg scale-up batch): D90 = 43 uM | D-value ([5]; % level 5): 1.20 | D-value ([5]; % level 10): 2.21 | D-value ([5]; % level 15): 3.64 | D-value ([5]; % level 20): 5.39 | D-value ([5]; % level 25): 7.16 | D-value ([5]; % level 30): 8.89 | D-value ([5]; % level 35): 10.58 | D-value ([5]; % level 40): 12.28 | D-value ([5]; % level 45): 14.04 | D-value ([5]; % level 50): 15.88 | D-value ([5]; % level 55): 17.79 | D-value ([5]; % level 60): 19.93 | D-value ([5]; % level 65): 22.30 | D-value ([5]; % level 70): 24.85 | D-value ([5]; % level 75): 28.06 | D-value ([5]; % level 80): 31.79 | D-value ([5]; % level 85): 36.34 | D-value ([5]; % level 90): 42.91 | D-value ([5]; % level 95): 54.73 | weight loss (TGA, %) [6]: 0.11% (<120° C.)
